This is an account of results in US20250320213A1, “Nitrogen-Containing Heterocyclic Compounds” (Pfizer Inc., priority 2024, published 2025).

pEC50: −log10 of the molar value.

The assay has as its target T1, STAT6 (Homo sapiens, UniProt P42226).
T1 construct: stably transfected HaCaT keratinocyte cell line, which expresses NanoLuc luciferase reporter gene under the transcriptional control of the STAT6 responsive promoter; endogenous in cells; host or cells: HaCaT keratinocyte reporter cell line (stably transfected with a NanoLuc reporter)
T1 sequence (P42226 1-847): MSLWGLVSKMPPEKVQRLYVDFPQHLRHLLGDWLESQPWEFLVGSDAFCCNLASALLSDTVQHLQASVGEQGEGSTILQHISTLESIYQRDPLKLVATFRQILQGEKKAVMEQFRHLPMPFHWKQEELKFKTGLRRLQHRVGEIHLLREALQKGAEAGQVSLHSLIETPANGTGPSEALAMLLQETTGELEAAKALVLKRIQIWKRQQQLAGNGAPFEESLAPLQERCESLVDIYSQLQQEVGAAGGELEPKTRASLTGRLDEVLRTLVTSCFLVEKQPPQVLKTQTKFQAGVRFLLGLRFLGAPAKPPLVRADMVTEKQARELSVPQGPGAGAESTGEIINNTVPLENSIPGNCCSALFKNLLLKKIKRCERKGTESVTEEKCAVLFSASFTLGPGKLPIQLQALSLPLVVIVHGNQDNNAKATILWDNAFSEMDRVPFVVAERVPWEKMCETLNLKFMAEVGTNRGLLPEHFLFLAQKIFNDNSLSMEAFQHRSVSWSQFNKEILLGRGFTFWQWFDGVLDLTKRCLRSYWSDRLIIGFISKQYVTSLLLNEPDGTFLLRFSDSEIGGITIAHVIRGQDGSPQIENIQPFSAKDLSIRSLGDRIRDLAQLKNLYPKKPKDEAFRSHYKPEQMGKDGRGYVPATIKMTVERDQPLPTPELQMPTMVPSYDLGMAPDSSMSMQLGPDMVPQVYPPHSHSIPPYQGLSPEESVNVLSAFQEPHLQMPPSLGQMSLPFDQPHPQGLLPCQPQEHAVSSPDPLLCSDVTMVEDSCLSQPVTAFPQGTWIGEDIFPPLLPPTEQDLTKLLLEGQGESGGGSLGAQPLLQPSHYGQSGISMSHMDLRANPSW
Description: STAT6 Reporter Luciferase Assay (IL-13 stimulated HaCaT keratinocyte NanoLuc reporter cells). The assay is classed as cell-based. To be noted: IL-13 stimulated HaCaT STAT6 NanoLuc reporter cells; read-out: Reporter EC50. In a few lines: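 Stably transfected HaCaT cells carrying NanoLuc under the STAT6-responsive IL-13Ra2 promoter were pre-treated with compound (11-point, 4-fold series, duplicate) for 2 h at 37 °C, then stimulated with 0.12 nM IL-13 for 4 h. Nano-Glo luminescence was read after 15 min.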
Turning to `Cc1nc2c(s1)CCN(C(=O)c1ccc(N3CCc4c(c(C(=O)NCc5ccc(NC(=O)N(C)C)cc5)nn4C(C)C)C3)nc1)C2` [Example 406, N-(4-(3,3-dimethylureido)benzyl)-1-isopropyl-5-(5-(2-methyl-4,5,6,7-tetrahydrothiazolo[4,5-c]pyridine-5-carbonyl)pyridin-2-yl)-4,5,6,7-tetrahydro-1H-pyrazolo[4,3-c]pyridine-3-carboxamide], the pEC50 was 7.96. As for `CC(C)n1nc(C(=O)NCc2ccc(NC(=O)N3CCN(C)[C@@H](C)C3)c(F)c2)c2c1[C@@H](C)CN(c1ccc(C(=O)N(C)C)cc1)C2` [Example 680, (S)-5-(4-(dimethylcarbamoyl)phenyl)-N-(4-((S)-3,4-dimethylpiperazine-1-carboxamido)-3-fluorobenzyl)-1-isopropyl-7-methyl-4,5,6,7-tetrahydro-1H-pyrazolo[4,3-c]pyridine-3-carboxamide], the pEC50 is 8.70. With `Cc1c2c(nn1C)CCN(C(=O)c1ccc(N3CCc4c(c(C(=O)NCc5ccc(NC(=O)N(C)C)cc5)nn4C(C)C)C3)nc1)C2` [Example 381, 5-(5-(2,3-dimethyl-4,5,6,7-tetrahydro-2H-pyrazolo[4,3-c]pyridine-5-carbonyl)pyridin-2-yl)-N-(4-(3,3-dimethylureido)benzyl)-1-isopropyl-4,5,6,7-tetrahydro-1H-pyrazolo[4,3-c]pyridine-3-carboxamide] the figure was 7.48; with `CC(C)n1nc(C(=O)NCc2ccc(NC(=O)N(C)C)cc2)c2c1CCN(c1ccc(C(=O)N3CCOCC3)cn1)C2` [Example 206, N-(4-(3,3-dimethylureido)benzyl)-1-isopropyl-5-(5-(morpholine-4-carbonyl)pyridin-2-yl)-4,5,6,7-tetrahydro-1H-pyrazolo[4,3-c]pyridine-3-carboxamide], 7.01; with `CC(C)n1nc(C(=O)NCc2ccc(NC(=O)N3CCN4CCCC[C@H]4C3)cc2)c2c1[C@@H](C)CN(c1ccc(C(=O)N(C)C)cc1)C2` [Example 737, (S)-N-(4-(((S)-5-(4-(dimethylcarbamoyl)phenyl)-1-isopropyl-7-methyl-4,5,6,7-tetrahydro-1H-pyrazolo[4,3-c]pyridine-3-carboxamido)methyl)phenyl)octahydro-2H-pyrido[1,2-a]pyrazine-2-carboxamide], 9.00. On to `CC(C)n1nc(C(=O)NCc2ccc(NC(=O)N3CCN(C)CC3)cc2)c2c1C(C(F)(F)F)CN(c1ccc(C(=O)N(C)C)cc1)C2` (single isomer, unassigned) [Example 702, rel-(R or S)-5-(4-(dimethylcarbamoyl)phenyl)-1-isopropyl-N-(4-(4-methylpiperazine-1-carboxamido)benzyl)-7-(trifluoromethyl)-4,5,6,7-tetrahydro-1H-pyrazolo[4,3-c]pyridine-3-carboxamide], for which the pEC50 is 8.00. Take `CC(C)n1nc(C(=O)NCc2ccc(NC(=O)N3CCC4(CCCN(C)C4)CC3)cc2)c2c1[C@@H](C)CN(c1ccc(C(=O)N(C)C)cc1)C2` [Example 757, (S)-N-(4-((5-(4-(dimethylcarbamoyl)phenyl)-1-isopropyl-7-methyl-4,5,6,7-tetrahydro-1H-pyrazolo[4,3-c]pyridine-3-carboxamido)methyl)phenyl)-2-methyl-2,9-diazaspiro[5.5]undecane-9-carboxamide]: the pEC50 is 9.52. Next, `CC(C)n1nc(C(=O)NCc2ccc(NC(=O)N3CCN(C)CC3)cc2)c2c1[C@@H](C)CN(c1ccc3c(c1)OCCN(C)C3=O)C2` [Example 657, (S)-1-isopropyl-7-methyl-5-(4-methyl-5-oxo-2,3,4,5-tetrahydrobenzo[f][1,4]oxazepin-8-yl)-N-(4-(4-methylpiperazine-1-carboxamido)benzyl)-4,5,6,7-tetrahydro-1H-pyrazolo[4,3-c]pyridine-3-carboxamide]: 8.70. In the case of `CC(C)n1nc(C(=O)NCc2ccc(NC(=O)N(C)C)cc2)c2c1CCN(c1ccc(C(=O)N3CCc4ncsc4C3)cn1)C2` [Example 374, N-(4-(3,3-dimethylureido)benzyl)-1-isopropyl-5-(5-(4,5,6,7-tetrahydrothiazolo[5,4-c]pyridine-5-carbonyl)pyridin-2-yl)-4,5,6,7-tetrahydro-1H-pyrazolo[4,3-c]pyridine-3-carboxamide], the pEC50 is 7.85. In the case of `CC(C)n1nc(C(=O)NCc2ccc(NC(=O)N3CCN(C)C4(CC4)C3)c(F)c2)c2c1[C@@H](C)CN(c1ccc(C(=O)N(C)C)cc1)C2` [Example 648, (S)-5-(4-(dimethylcarbamoyl)phenyl)-N-(3-fluoro-4-(4-methyl-4,7-diazaspiro[2.5]octane-7-carboxamido)benzyl)-1-isopropyl-7-methyl-4,5,6,7-tetrahydro-1H-pyrazolo[4,3-c]pyridine-3-carboxamide], the pEC50 was 9.00. Next, `CC(C)n1nc(C(=O)NCc2ccc(NC(=O)N(C)C)cc2)c2c1CCN(c1ccc(C(=O)N3C[C@@H]4OC(=O)N(C)[C@@H]4C3)cn1)C2` (racemic) [Example 334, rac-N-(4-(3,3-dimethylureido)benzyl)-1-isopropyl-5-(5-((3aR,6aS)-3-methyl-2-oxohexahydro-2H-pyrrolo[3,4-d]oxazole-5-carbonyl)pyridin-2-yl)-4,5,6,7-tetrahydro-1H-pyrazolo[4,3-c]pyridine-3-carboxamide]: 6.75. Next, `CC(C)n1nc(C(=O)NCc2ccc(NC(=O)N(C)C)cc2)c2c1CCN(c1ccc(C(=O)N3CCc4cccnc4C3)cn1)C2` [Example 417, N-(4-(3,3-dimethylureido)benzyl)-1-isopropyl-5-(5-(5,6,7,8-tetrahydro-1,7-naphthyridine-7-carbonyl)pyridin-2-yl)-4,5,6,7-tetrahydro-1H-pyrazolo[4,3-c]pyridine-3-carboxamide]: 7.77. For the compound `Cc1noc(=O)n1-c1ccc(N2Cc3c(C(=O)NCc4ccc(NC(=O)N5CCN(C)CC5)cc4)nn(C(C)C)c3[C@@H](C)C2)cc1` [Example 656, (S)-1-isopropyl-7-methyl-5-(4-(3-methyl-5-oxo-1,2,4-oxadiazol-4(5H)-yl)phenyl)-N-(4-(4-methylpiperazine-1-carboxamido)benzyl)-4,5,6,7-tetrahydro-1H-pyrazolo[4,3-c]pyridine-3-carboxamide], the pEC50 was 8.70. As for `CC(C)n1nc(C(=O)NCc2ccc(NC(=O)N3CCN(C)CC3)cc2)c2c1[C@@H](C)CN(c1ccc(-n3ccnn3)cc1)C2` [Example 674, (S)-5-(4-(1H-1,2,3-triazol-1-yl)phenyl)-1-isopropyl-7-methyl-N-(4-(4-methylpiperazine-1-carboxamido)benzyl)-4,5,6,7-tetrahydro-1H-pyrazolo[4,3-c]pyridine-3-carboxamide], the pEC50 was 9.70. Next, `CC(C)n1nc(C(=O)NCc2ccc(NC(=O)N(C)C)cc2)c2c1CCN(c1ccc(C(=O)N3CC4(CCC(=O)N4)C3)cn1)C2` [Example 298, N-(4-(3,3-dimethylureido)benzyl)-1-isopropyl-5-(5-(6-oxo-2,5-diazaspiro[3.4]octane-2-carbonyl)pyridin-2-yl)-4,5,6,7-tetrahydro-1H-pyrazolo[4,3-c]pyridine-3-carboxamide]: 5.59. Turning to `Cc1nnc2n1CCN(C(=O)c1ccc(N3CCc4c(c(C(=O)NCc5ccc(NC(=O)N(C)C)cc5)nn4C(C)C)C3)nc1)C2` [Example 373, N-(4-(3,3-dimethylureido)benzyl)-1-isopropyl-5-(5-(3-methyl-5,6,7,8-tetrahydro-[1,2,4]triazolo[4,3-a]pyrazine-7-carbonyl)pyridin-2-yl)-4,5,6,7-tetrahydro-1H-pyrazolo[4,3-c]pyridine-3-carboxamide], the pEC50 is 6.27. Next, `CC(C)n1nc(C(=O)NCc2ccc(NC(=O)N3CCN(C)CC3)cc2)c2c1C(C(F)(F)F)CN(c1ccc(C(=O)N(C)C)cc1)C2` (single isomer, unassigned) [Example 705, rel-(R or S)-5-(4-(dimethylcarbamoyl)phenyl)-1-isopropyl-N-(4-(4-methylpiperazine-1-carboxamido)benzyl)-7-(trifluoromethyl)-4,5,6,7-tetrahydro-1H-pyrazolo[4,3-c]pyridine-3-carboxamide]: 9.70; `CC(C)n1nc(C(=O)NCc2ccc(NC(=O)N3CC[C@@H](CN(C)C)C3)cc2)c2c1[C@@H](C)CN(c1ccc(C(=O)N(C)C)cc1)C2` [Example 736, (S)-N-(4-((S)-3-((dimethylamino)methyl)pyrrolidine-1-carboxamido)benzyl)-5-(4-(dimethylcarbamoyl)phenyl)-1-isopropyl-7-methyl-4,5,6,7-tetrahydro-1H-pyrazolo[4,3-c]pyridine-3-carboxamide]: 9.00.
